Columns and labels:
detrusor muscle [1] = experiment: Test Example 2: relaxation of guinea pig bladder strips, rhythmical contraction induced by 15 mM KCl; format: cell-based, guinea pig (male albino Hartley); conditions: Cavia porcellus, concentration decreasing detrusor contraction by 50%
Text: (§1) The activity of Compound (I) as a smooth muscle relaxant which is useful as a therapeutic agent for urinary incontinence can be observed, for example, using the following tests. In the following Test Examples 1 and 2, "IC50 " means the concentration of a test compound which induces the decrease in the contraction of detrusor muscle by 50%.
(§2) Male albino Hartley guinea pigs (350-550 g) were used as test animals. Each animal was exsanguinated to death under pentobarbital sodium anesthesia. The lower abdominal cavity was opened and its bladder was positioned. The connective tissue and the fat tissue around the bladder were removed, and the bladder was cleaned. After two pelvic nerves on the surface of the abdominal side of the bladder were dissected, the bladder was taken out on the entrance of ureter. The bladder was washed with a Krebs-Henseleit buffer [composition (mM): NaCl 118, KCl 4.7, MgSO4 1.2, KH2 PO4 1.2, CaCl2 2.5, NaHCO3 25, and D-glucose 11.1], and then put on a gauze patch soaked in the buffer in a Petri dish. The dome and the trigone of the bladder were dissected and discarded. The back of the bladder was cut vertically in the middle with scissors, and the bladder was put flat on the gauze patch. The dome tip and the side of the trigone of the bladder were dissected and discarded, and the mucosa of the bladder was removed. The back of the bladder was cut vertically to get 6 strips which are ca. 2.0 mm wide and ca. 10 mm long.
(§3) One end of each strip was fixed on a plastic supporter rod, and the other end was fixed on a clip connected to a suture thread. The supporter was fixed in 20 ml of an organ bath and the suture thread connected to the clip was fixed on a force-displacement transducer (NIHON KODEN TB-611T). The tissue was suspended in a Krebs-Henseleit buffer, and the bath solution was warmed to 37° C. and bubbled with a gas mixture of 5% CO2 and 95% O2. The pH of the solution was adjusted to about 7.4. The transducer was connected to a polygraph (NIHON KODEN AP-621G), and the change of tension was recorded on a recorder (YOKOGAWA type 3066). The polygraph was graduated by 0.5 g/cm.
The effect of a smooth muscle relaxant varies with the concentration of KCl based on the difference of an action mechanism. In the following Test Example, KCl was used at a concentration different from that in Test Example 1.
A sample of the excised bladder was prepared in the same manner as in Test Example 1, and the tension of the preparation was measured. After the tension of the tissue was adjusted to be a steady state at 1 g, 15 mM KCl was applied. After the rhythmical contraction was confirmed to appear by KCl, the tissue was washed. Then, 15 mM KCl was applied again. After the rhythmical contraction took place constantly and the tissue reached the steady state, a test compound was applied by the cumulative method (half-logarithmic incremence). The contact time at each concentration was 30 minutes. The activity of the compound was expressed as the maximum relaxation rate (%) of the tension induced by the agonist.

bladder = experiment: Test Example 4: micturition contraction interval in rats under partial restraint, oral; format: in vivo, rat (male SD strain); conditions: Rattus norvegicus, 1.0 mg/kg oral, pre-administration = 100, second part of Table 4
Text: As a control compound, cromakalim was used.

detrusor muscle [2] = experiment: Test Example 1: relaxation of guinea pig bladder strips contracted with 50 mM KCl; format: cell-based, guinea pig (male albino Hartley); conditions: Cavia porcellus; contraction induced by 50 mM KCl; concentration decreasing detrusor contraction by 50%
Text: as §1, §2, §3
After the tissue was incubated in the buffer for 15 minutes without preloading, tension was added thereto for about one hour. The preloading tension added was 1.5 g and it was relaxed to about 1 g. The tissue was washed at intervals of 15 minutes and the tension was adjusted to 1.5 g just before washing. The tension of the tissue was adjusted to be a steady state at 1 g. After this equilibrium time, 50 mM KCl (the whole content in the bath) was added, and the tissue was washed 10 minutes later. KCl was added to the tissue at intervals of 30 minutes, followed by washing 10 minutes later, and KCl was applied repeatedly until the developed tension induced by KCl becomes constant. When the tissue was confirmed to contract constantly by the application of KCl and relax to the steady state after washing, 50 mM KCl was applied again. After the tissue reached the steady state and the base line was obtained, a test compound was applied by the cumulative method (half-logarithmic incremence). The contact time at each concentration was 30 minutes. The activity of the compound was expressed as the maximum relaxation rate (%) of the tension induced by the agonist.

| SMILES | IC50 (detrusor muscle [1]) | response vs control in vivo at 1 mg/kg (bladder; 1 hr after administration) | response vs control in vivo at 1 mg/kg (bladder; 2 hr after administration) | response vs control in vivo at 1 mg/kg (bladder; 3 hr after administration) | response vs control in vivo at 1 mg/kg (bladder; 4 hr after administration) | response vs control in vivo at 1 mg/kg (bladder; 5 hr after administration) | IC50 (detrusor muscle [2]) |
| --- | --- | --- | --- | --- | --- | --- | --- |
| CC(O)(C(=O)Nc1cccc2c1C(=O)c1occc1CO2)C(F)(F)F (stereo not shown) [Compound 15, 9-(3,3,3-Trifluoro-2-hydroxy-2-methylpropanoylamino)-4,10-dihydrofuro[3,2-c][1]benzoxepin-10-one] | 9.4 µM | 130 ± 9.5% | 128 ± 5.3% | 107 ± 16.5% | 121 ± 11.4% | 135 ± 12.6% | 7.1 µM |
| C[C@](O)(C(=O)Nc1ccc2c(c1)OCc1occc1C2=O)C(F)(F)F [Compound 37, (S)-7-(3,3,3-Trifluoro-2-hydroxy-2-methylpropanoylamino)-4,10-dihydrofuro[2,3-c][1]benzoxepin-4-one] | 0.2 µM | 114 ± 10.7% | 128 ± 6.5% | 126 ± 6.5% | 140 ± 10.2% | 144 ± 11.1% | 4.3 µM |
| C[C@](O)(C(=O)Nc1cccc2c1C(=O)c1ccoc1CO2)C(F)(F)F [Compound 35, (S)-5-(3,3,3-Trifluoro-2-hydroxy-2-methylpropanoylamino)-4,10-dihydrofuro[2,3-c][1]benzoxepin-4-one] | 1 µM | 123 ± 8.8% | 124 ± 5.7% | 131 ± 9.8% | 138 ± 11% | 144 ± 8.9% | 31 µM |
| CC(O)(C(=O)Nc1ccc2c(c1)C(=O)c1ccccc1CC2)C(F)(F)F (stereo not shown) [Compound 53, 3-(3,3,3-Trifluoro-2-hydroxy-2-methylpropanoylamino)-10,11-dihydro-5H-dibenzo[a,d]cyclohepten-5-one] | 2.9 µM | 108 ± 9.7% | 134 ± 12% | 148 ± 14% | 155 ± 11.9% | 168 ± 11.8% | > 10 µM |
| CC(O)(C(=O)Nc1ccc2c(c1)OCc1occc1C2=O)C(F)(F)F (stereo not shown) [Compound 10, 7-(3,3,3-Trifluoro-2-hydroxy-2-methylpropanoylamino)-4,10-dihydrofuro[2,3-c][1]benzoxepin-4-one] | 1.9 µM | 132 ± 11.2% | 142 ± 17.5% | 158 ± 22.3% | 174 ± 29.9% | 183 ± 42.7% | 10 µM |
| CC(O)(C(=O)Nc1ccc2c(c1)C(=O)c1ccccc1-2)C(F)(F)F (stereo not shown) [Compound 5, 2-(3,3,3-Trifluoro-2-hydroxy-2-methylpropanoylamino)fluoren-9-one] | 2.1 µM | 112 ± 7% | 136 ± 16.5% | 137 ± 14.5% | 132 ± 9.5% | 131 ± 17.7% | 8 µM |
| CC(O)(C(=O)Nc1ccc2c(c1)OCc1ccccc1C2=O)C(F)(F)F (stereo not shown) [Compound 2, 3-(3,3,3-Trifluoro-2-hydroxy-2-methylpropanoylamino)-6,11-dihydrodibenz[b,e]oxepin-11-one] | 3.4 µM | 121 ± 6.2% | 135 ± 12.3% | 144 ± 16.3% | 141 ± 15.6% | 145 ± 16% | 3.6 µM |
| CC(O)(C(=O)Nc1cccc2c1C(=O)c1ccoc1CS2)C(F)(F)F (stereo not shown) [Compound 42, 5(3,3,3-Trifluoro-2-hydroxy-2-methylpropanoylamino)-4,10-dihydrofuro[2,3-c][1]benzothiepin-4-one] | 1.5 µM |  |  |  |  |  | 4.7 µM |
| CC(O)(C(=O)Nc1cccc2c1-c1ccccc1C2=O)C(F)(F)F (stereo not shown) [Compound 14, 4-(3,3,3-Trifluoro-2-hydroxy-2-methylpropanoylamino)fluoren-9-one] | 2.3 µM |  |  |  |  |  | 5.7 µM |
| CC(O)(C(=O)Nc1ccc2c(c1)OCc1sccc1C2=O)C(F)(F)F (stereo not shown) [Compound 18, 7-(3,3,3-Trifluoro-2-hydroxy-2-methylpropanoylamino)-4,10-dihydrothieno[2,3-c][1]benzoxepin-4-one] | 2.1 µM |  |  |  |  |  | > 10 µM |
| C[C@@](O)(C(=O)Nc1cccc2c1C(=O)c1sccc1CO2)C(F)(F)F [Compound 34, (R)-9-(3,3,3-Trifluoro-2-hydroxy-2-methylpropanoylamino)-4,10-dihydrothieno[3,2-c][1]benzoxepin-10-one] | 2.2 µM |  |  |  |  |  | 1.6 µM |
| C[C@@](O)(C(=O)Nc1cccc2c1C(=O)c1ccoc1CO2)C(F)(F)F [Compound 36, (R)-5-(3,3,3-Trifluoro-2-hydroxy-2-methylpropanoylamino)-4,10-dihydrofuro[2,3-c][1]benzoxepin-4-one] | 1.3 µM |  |  |  |  |  | 8.3 µM |
| Cc1cc2c(cc1NC(=O)C(C)(O)C(F)(F)F)OCc1ccccc1C2=O (stereo not shown) [Compound 25, 2-Methyl-3-(3,3,3-trifluoro-2-hydroxy-2-methylpropanoylamino)-6,11-dihydrodibenz[b,e]oxepin-11-one] | > 10 µM |  |  |  |  |  | 2.2 µM |
| CC(O)(C(=O)Nc1ccc2c(=O)c3ccccc3ccc2c1)C(F)(F)F (stereo not shown) [Compound 62, 2-(3,3,3-Trifluoro-2-hydroxy-2-methylpropanoylamino)-5H-dibenzo[a,d]cyclohepten-5-one] | > 10 µM |  |  |  |  |  | 9.3 µM |
| CC(O)(C(=O)Nc1cccc2ccc3ccsc3c(=O)c12)C(F)(F)F (stereo not shown) [Compound 63, 9-(3,3,3-Trifluoro-2-hydroxy-2-methylpropanoylamino)-10H-benzo[5,6]cyclohepta[1,2-b]thiophen-10-one] | > 10 µM |  |  |  |  |  | 3.3 µM |
| Cc1ccc(NC(=O)C(C)(O)C(F)(F)F)c2c1OCc1ccsc1C2=O (stereo not shown) [Compound 26, 6-Methyl-9-(3,3,3-trifluoro-2-hydroxy-2-methylpropanoylamino)-4,10-dihydrothieno[3,2-c][1]-benzoxepin-10-one] | > 10 µM |  |  |  |  |  | 7.1 µM |
| C[C@@](O)(C(=O)Nc1ccc2c(c1)OCc1occc1C2=O)C(F)(F)F [Compound 38, (R)-7-(3,3,3-Trifluoro-2-hydroxy-2-methylpropanoylamino)-4,10-dihydrofuro[2,3-c][1]benzoxepin-4-one] | 0.9 µM |  |  |  |  |  | 13.4 µM |
| CC(O)(C(=O)Nc1ccc2c(c1)C(=O)c1cc(Br)ccc1-2)C(F)(F)F (stereo not shown) [Compound 13, 7-Bromo-2-(3,3,3-trifluoro-2-hydroxy-2-methylpropanoylamino)fluoren-9-one] | 48 µM |  |  |  |  |  | 3.5 µM |
| CC(O)(C(=O)Nc1ccc2c(c1)CCc1ncccc1C2=O)C(F)(F)F (stereo not shown) [Compound 59, 8-(3,3,3-Trifluoro-2-hydroxy-2-methylpropanoylamino)-10,11-dihydro-5H-benzo[4,5]cyclohepta[1,2-b]pyridin-5-one] | 5 µM |  |  |  |  |  | > 10 µM |

Reference: patent publication US5726325A, “Tricyclic compounds” (Kyowa Hakko Kogyo Co., Ltd., priority 1995, dated 1998)
